Laboratory results as given in ChEMBL document CHEMBL1201862, “PubChem BioAssay data set” (2004).
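Protocol summary: plate cells (96-well), add compound at 5 concentrations, incubate 48 h, interpolate endpoints linearly. The concentration for 50% growth inhibition is given as GI50.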 The source made the active and inactive calls. Rule as the data show it: active = GI50 up to about 1.1 µM and inactive = higher.

How the values were obtained:
Test in all cases: DTP human tumour cell line panel, 48 h
NCI-H226 = tested on: NCI-H226
HCT-116 = tested on: HCT-116
SF-268 = tested on: SF-268
HT-29 = tested on: HT-29
NCI-H460 = tested on: NCI-H460
NCI-H23 = tested on: NCI-H23
MCF7 = tested on: MCF7
UACC-62 = tested on: UACC-62
MOLT-4 = tested on: MOLT-4
CCRF-CEM = tested on: CCRF-CEM
SNB-75 = tested on: SNB-75
OVCAR-8 = tested on: OVCAR-8
SNB-19 = tested on: SNB-19
LOX IMVI = tested on: LOX IMVI
HCT-15 = tested on: HCT-15
SF-539 = tested on: SF-539
ACHN = tested on: ACHN
Hs-578T = tested on: Hs-578T
DU-145 = tested on: DU-145

| SMILES | GI50 (NCI-H226) | GI50 (HCT-116) | GI50 (SF-268) | GI50 (HT-29) | GI50 (NCI-H460) | GI50 (NCI-H23) | GI50 (MCF7) | GI50 (UACC-62) | GI50 (MOLT-4) | GI50 (CCRF-CEM) | GI50 (SNB-75) | GI50 (OVCAR-8) | GI50 (SNB-19) | GI50 (LOX IMVI) | GI50 (HCT-15) | GI50 (SF-539) | GI50 (ACHN) | GI50 (Hs-578T) | GI50 (DU-145) |
| --- | --- | --- | --- | --- | --- | --- | --- | --- | --- | --- | --- | --- | --- | --- | --- | --- | --- | --- | --- |
| C#CC[N+](CCO)(CCO)CCCCCCCCCCCCCCCCCC | 12.6 µM (inactive) | 8.41 µM (inactive) | 8.69 µM (inactive) | 4.59 µM (inactive) | 9.53 µM (inactive) | 13.8 µM (inactive) | 14.8 µM (inactive) | 11 µM (inactive) | 2.91 µM (inactive) | 2.03 µM (inactive) | 4.16 µM (inactive) | 16.1 µM (inactive) | 5.92 µM (inactive) | 4.81 µM (inactive) | 15.3 µM | 11.4 µM (inactive) | – | – | – |
| COc1cc2ccc(/C(C)=N/OC(C)=O)cc2cc1OC | 53.6 µM (inactive) | > 100 µM (inactive) | 44.4 µM (inactive) | 64.3 µM (inactive) | 82.2 µM (inactive) | > 100 µM (inactive) | – | 20.8 µM (inactive) | 39.7 µM (inactive) | 66.5 µM (inactive) | 5.81 µM (inactive) | > 100 µM (inactive) | > 100 µM (inactive) | > 100 µM (inactive) | > 100 µM | 77.1 µM (inactive) | 65.3 µM (inactive) | – | – |
| CC(C)(C)OC(=O)NC1CCC(C(C)(C)C)CC1 (stereo not drawn) | 26.4 µM (inactive) | 43.1 µM (inactive) | > 100 µM (inactive) | 22.3 µM (inactive) | > 77.3 µM (inactive) | > 83 µM (inactive) | 44.5 µM (inactive) | 37.4 µM (inactive) | 23.9 µM (inactive) | 36.1 µM (inactive) | 40.7 µM (inactive) | > 89.7 µM (inactive) | 95.7 µM (inactive) | 40.9 µM (inactive) | > 79.6 µM | > 100 µM (inactive) | – | – | – |
| CCOC(=O)C1=C(O)C(=O)c2ccoc2C1=O | > 100 µM (inactive) | > 100 µM (inactive) | > 100 µM (inactive) | > 100 µM (inactive) | > 100 µM (inactive) | > 100 µM (inactive) | – | > 100 µM (inactive) | > 100 µM (inactive) | > 100 µM (inactive) | > 100 µM (inactive) | > 100 µM (inactive) | > 100 µM (inactive) | > 100 µM (inactive) | > 100 µM | > 100 µM (inactive) | > 100 µM (inactive) | – | – |
| O=C1C2=C(c3ccccc31)C(c1ccccc1Cl)N1C(=O)CSC1=N2 (stereo not drawn) | > 100 µM (inactive) | 87.3 µM (inactive) | 56.2 µM (inactive) | > 100 µM (inactive) | > 100 µM (inactive) | 85.7 µM (inactive) | – | 59.4 µM (inactive) | 33.9 µM (inactive) | 44.3 µM (inactive) | 39.4 µM (inactive) | > 100 µM (inactive) | > 100 µM (inactive) | > 100 µM (inactive) | 83.4 µM | > 100 µM (inactive) | > 100 µM (inactive) | – | – |
| COC(C(=O)NN)c1ccccc1 (stereo not drawn) | > 100 µM (inactive) | – | > 100 µM (inactive) | > 100 µM (inactive) | > 100 µM (inactive) | > 100 µM (inactive) | > 100 µM (inactive) | > 100 µM (inactive) | > 100 µM (inactive) | – | 27.8 µM (inactive) | > 100 µM (inactive) | > 100 µM (inactive) | – | > 100 µM | > 100 µM (inactive) | > 100 µM (inactive) | > 100 µM (inactive) | > 100 µM (inactive) |
| Cc1ccc(S(=O)(=O)C2=c3nc4ccccc4cc3=C3C(=O)c4ccccc4C(=O)C32)cc1 (stereo not drawn) | > 100 µM (inactive) | > 100 µM (inactive) | > 100 µM (inactive) | – | > 100 µM (inactive) | > 100 µM (inactive) | – | > 100 µM (inactive) | > 100 µM (inactive) | > 100 µM (inactive) | 43.3 µM (inactive) | > 100 µM (inactive) | > 100 µM (inactive) | > 100 µM (inactive) | > 100 µM | > 100 µM (inactive) | > 100 µM (inactive) | – | – |
| C[N+](C)(C)CC(=O)N/N=c1\cc(C(=O)Nc2ccc(N=O)cc2C#N)oc2cc(O)ccc12 | > 100 µM (inactive) | > 100 µM (inactive) | > 100 µM (inactive) | > 100 µM (inactive) | > 100 µM (inactive) | > 100 µM (inactive) | – | > 100 µM (inactive) | > 100 µM (inactive) | > 100 µM (inactive) | > 100 µM (inactive) | > 100 µM (inactive) | > 100 µM (inactive) | > 100 µM (inactive) | > 100 µM | > 100 µM (inactive) | > 100 µM (inactive) | – | – |
| Nc1nc(N)c(CCCCc2ccccc2)c(/C=C/c2ccc([N+](=O)[O-])cc2)n1 | 26.1 µM (inactive) | 1.16 µM (inactive) | 3.7 µM (inactive) | 0.925 µM (active) | 0.873 µM (active) | 3.86 µM (inactive) | – | 2.07 µM (inactive) | 1.14 µM (inactive) | 1.69 µM (inactive) | 2.47 µM (inactive) | 2.59 µM (inactive) | 3.8 µM (inactive) | 1.85 µM (inactive) | 1.25 µM | 2.16 µM (inactive) | 3.4 µM (inactive) | – | – |
| N#CCCN(CCC#N)c1ccc(/C=C(/NC(=O)c2cc([N+](=O)[O-])ccc2Cl)C(=O)NN)cc1 | > 100 µM (inactive) | > 100 µM (inactive) | > 100 µM (inactive) | > 100 µM (inactive) | > 100 µM (inactive) | > 100 µM (inactive) | – | > 100 µM (inactive) | 44.8 µM (inactive) | 47.5 µM (inactive) | > 100 µM (inactive) | 58.3 µM (inactive) | > 100 µM (inactive) | 41.4 µM (inactive) | > 100 µM | > 100 µM (inactive) | > 100 µM (inactive) | – | – |
| Nc1ccc2ncc(Nc3ccc(F)cc3)nc2c1 | 37.5 µM (inactive) | > 100 µM (inactive) | > 100 µM (inactive) | > 100 µM (inactive) | > 100 µM (inactive) | > 100 µM (inactive) | – | – | 27.7 µM (inactive) | 56.8 µM (inactive) | > 100 µM (inactive) | > 100 µM (inactive) | > 100 µM (inactive) | > 100 µM (inactive) | > 100 µM | 90.4 µM (inactive) | > 100 µM (inactive) | – | – |
| COc1ccccc1C1c2cc3c(cc2OC(N2CCCC2)C1C)OCO3 (stereo not drawn) | – | 14.8 µM (inactive) | 13.6 µM (inactive) | 21.4 µM (inactive) | 16.4 µM (inactive) | 18.3 µM (inactive) | 18.9 µM (inactive) | 16.2 µM (inactive) | 3.16 µM (inactive) | 19.5 µM (inactive) | 12.9 µM (inactive) | 21.2 µM (inactive) | 17.9 µM (inactive) | 16.9 µM (inactive) | 17.2 µM | 14.9 µM (inactive) | 14.5 µM (inactive) | 7.48 µM (inactive) | 15.2 µM (inactive) |
| Clc1ccc(-c2c(C3=NCCN3)nnn2-c2ccccc2)cc1 | > 100 µM (inactive) | 83.4 µM (inactive) | > 100 µM (inactive) | 68.7 µM (inactive) | > 100 µM (inactive) | > 100 µM (inactive) | – | > 100 µM (inactive) | 80.2 µM (inactive) | > 100 µM (inactive) | > 100 µM (inactive) | > 100 µM (inactive) | > 100 µM (inactive) | > 100 µM (inactive) | > 100 µM | > 100 µM (inactive) | > 100 µM (inactive) | – | – |
| c1ccc(/N=C(/Nc2ccccc2)N2CCCC2)cc1 | > 100 µM (inactive) | > 100 µM (inactive) | > 100 µM (inactive) | > 100 µM (inactive) | > 100 µM (inactive) | > 100 µM (inactive) | > 100 µM (inactive) | > 100 µM (inactive) | > 100 µM (inactive) | > 100 µM (inactive) | > 100 µM (inactive) | > 100 µM (inactive) | > 100 µM (inactive) | > 100 µM (inactive) | > 100 µM | – | > 100 µM (inactive) | > 100 µM (inactive) | > 100 µM (inactive) |
| CC(=O)OC1C(O)C(C)OC(OC(=O)C2CCC3C(C2)OC2(CC(OC(=O)/C=C/c4ccccc4)C(C)CO2)C32CO2)C1OC1OC(C)C(O)C(O)C1O (stereo not drawn) | 0.0435 µM (active) | 0.038 µM (active) | 0.0362 µM (active) | 0.0419 µM (active) | 0.0448 µM (active) | 0.0467 µM (active) | 0.0325 µM (active) | 0.039 µM (active) | 0.0337 µM (active) | 0.0342 µM (active) | 0.0468 µM (active) | 0.0789 µM (active) | 0.0399 µM (active) | 0.115 µM (active) | 3.96 µM | 0.0448 µM (active) | – | – | – |
| O=C(Nc1cccc2ccccc12)Oc1ccccc1C1CCCCC1 | 18.2 µM (inactive) | 17.7 µM (inactive) | 24.4 µM (inactive) | 18.2 µM (inactive) | 18.5 µM (inactive) | 17.9 µM (inactive) | – | 15.9 µM (inactive) | 15.9 µM (inactive) | 15 µM (inactive) | 13.9 µM (inactive) | 15.9 µM (inactive) | 53.6 µM (inactive) | 16.3 µM (inactive) | 17.2 µM | 17.5 µM (inactive) | – | – | – |
| C=C1C(=O)OC2C=C(C)CC3C=C(CCC=C(C)CCC12)C(=O)O3 (stereo not drawn) | 72.8 µM (inactive) | 33.1 µM (inactive) | 61.8 µM (inactive) | 67 µM (inactive) | 67.5 µM (inactive) | 49.3 µM (inactive) | 47.5 µM (inactive) | 54.2 µM (inactive) | 54 µM (inactive) | 16.5 µM (inactive) | 92.5 µM (inactive) | 72.3 µM (inactive) | 122 µM (inactive) | 32.5 µM (inactive) | 56.6 µM | 84.5 µM (inactive) | – | – | – |
